Data as given in patent US9168311B2, “Oligomer-dantrolene conjugates and related compounds” (Nektar Therapeutics, priority 2007, dated 2015).
Counter-ions that a name gives are not always drawn.

Key:
[1] = pKa and LogP determination with a Sirius GLPKa instrument; type: physicochemical
[2] = target: T1, cardiac L-type calcium channel (Homo sapiens, UniProt Q13936); test: Calcium current (ICa) block, whole-cell patch clamp in isolated human atrial myocytes; type: cell-based; conditions: for IC50: read-out: IC50 at 0.1 Hz; for Fold Difference (Parent vs. Derivative): ratio of IC50 at 0.1 Hz, derivative vs. dantrolene
T1 construct: Human myocytes were obtained from specimens of human right atrial appendage obtained during surgery; endogenous in cells; host or cells: primary human atrial myocytes isolated from right atrial appendage
Procedure: Human myocytes were obtained from specimens of human right atrial appendage obtained during surgery from hearts of patients undergoing cardiopulmonary bypass. The isolation procedure produced rod-shaped, calcium tolerant cells which were used within 24 hours after isolation (Crumb et al., (1995) Am J Physiol 268:H1335-H1342).
The whole-cell patch clamp technique was carried out at 23±1° C. with precise micromanipulation under high power visual magnification to measure calcium currents. Glass pipettes were fire polished to produce tip diameters of 1-4 μm. The tip of the pipette, filled with electrolyte “internal” solution (a composition of (mM): 120 CsCl, 20 TEACl, 5 NaCl, 1 CaCl2, 10 EGTA, 10 HEPES, 5 MgATP, 0.2 Na2GTP, adjusted to pH 7.2 with CsOH) was positioned onto a cell. The cell was in a bathing “external” solution (consisting of (mM): 1.8 CaCl2, 137 NaCl, 20 CsCl, 4 KCl, 1 MgCl2, 10 HEPES, 10 dextrose, pH=7.4 with NaOH). Pipette tip resistance was approximately 1.0 to 2.0 MΩ when filled with the internal solution. Suction was then applied to the pipette interior to seal the cell membrane onto the tip. Another suction pulse then broke the membrane, establishing electrical access into the interior of the cell. The cellular interior then became dialysed by the solution the patch pipette was filled with.
After rupture of the cell membrane (entering whole-cell mode), current kinetics and amplitudes were allowed to stabilize (currents elicited by a series of voltage pulses given at 0.1 Hz were superimposed) as the cell was dialyzed with internal solution and paced at 1 Hz (3-5 minutes). Calcium current (ICa) was measured using a voltage pulse to 0 mV (200 ms duration) from a holding potential of −60 mV. Only a pacing rate of 0.1 Hz was used. Test article, at concentrations of 0.1, 1, 3, 10, 30, and […] was added in a cumulative manner to a cell.
Currents and voltages were recorded with patch-clamp amplifiers (Axopatch 1-B, Axon Instruments, Foster City, Calif.). Creation of voltage clamp pulses and data acquisition was controlled by a computer using electrophysiology software (pCLAMP version 9.2, Axon Instruments, Foster City, Calif.). […] Each cell served as its own control.
All stock solutions (10 mM) were made by adding DMSO directly into the bottle containing the test article.
Approximate IC50 values (Table 1) were obtained from non-linear regression analysis of dose-response curves (FIG. 1) using GraphPad's Prism 5.01 software. Data was also analyzed for mean percent inhibition±SEM at the highest concentration tested, 100 μM (FIG. 2).
To test for cell sensitivity, 0.1 μM nisoldipine was added after exposure to test article.

T1 sequence (Q13936 whole entry): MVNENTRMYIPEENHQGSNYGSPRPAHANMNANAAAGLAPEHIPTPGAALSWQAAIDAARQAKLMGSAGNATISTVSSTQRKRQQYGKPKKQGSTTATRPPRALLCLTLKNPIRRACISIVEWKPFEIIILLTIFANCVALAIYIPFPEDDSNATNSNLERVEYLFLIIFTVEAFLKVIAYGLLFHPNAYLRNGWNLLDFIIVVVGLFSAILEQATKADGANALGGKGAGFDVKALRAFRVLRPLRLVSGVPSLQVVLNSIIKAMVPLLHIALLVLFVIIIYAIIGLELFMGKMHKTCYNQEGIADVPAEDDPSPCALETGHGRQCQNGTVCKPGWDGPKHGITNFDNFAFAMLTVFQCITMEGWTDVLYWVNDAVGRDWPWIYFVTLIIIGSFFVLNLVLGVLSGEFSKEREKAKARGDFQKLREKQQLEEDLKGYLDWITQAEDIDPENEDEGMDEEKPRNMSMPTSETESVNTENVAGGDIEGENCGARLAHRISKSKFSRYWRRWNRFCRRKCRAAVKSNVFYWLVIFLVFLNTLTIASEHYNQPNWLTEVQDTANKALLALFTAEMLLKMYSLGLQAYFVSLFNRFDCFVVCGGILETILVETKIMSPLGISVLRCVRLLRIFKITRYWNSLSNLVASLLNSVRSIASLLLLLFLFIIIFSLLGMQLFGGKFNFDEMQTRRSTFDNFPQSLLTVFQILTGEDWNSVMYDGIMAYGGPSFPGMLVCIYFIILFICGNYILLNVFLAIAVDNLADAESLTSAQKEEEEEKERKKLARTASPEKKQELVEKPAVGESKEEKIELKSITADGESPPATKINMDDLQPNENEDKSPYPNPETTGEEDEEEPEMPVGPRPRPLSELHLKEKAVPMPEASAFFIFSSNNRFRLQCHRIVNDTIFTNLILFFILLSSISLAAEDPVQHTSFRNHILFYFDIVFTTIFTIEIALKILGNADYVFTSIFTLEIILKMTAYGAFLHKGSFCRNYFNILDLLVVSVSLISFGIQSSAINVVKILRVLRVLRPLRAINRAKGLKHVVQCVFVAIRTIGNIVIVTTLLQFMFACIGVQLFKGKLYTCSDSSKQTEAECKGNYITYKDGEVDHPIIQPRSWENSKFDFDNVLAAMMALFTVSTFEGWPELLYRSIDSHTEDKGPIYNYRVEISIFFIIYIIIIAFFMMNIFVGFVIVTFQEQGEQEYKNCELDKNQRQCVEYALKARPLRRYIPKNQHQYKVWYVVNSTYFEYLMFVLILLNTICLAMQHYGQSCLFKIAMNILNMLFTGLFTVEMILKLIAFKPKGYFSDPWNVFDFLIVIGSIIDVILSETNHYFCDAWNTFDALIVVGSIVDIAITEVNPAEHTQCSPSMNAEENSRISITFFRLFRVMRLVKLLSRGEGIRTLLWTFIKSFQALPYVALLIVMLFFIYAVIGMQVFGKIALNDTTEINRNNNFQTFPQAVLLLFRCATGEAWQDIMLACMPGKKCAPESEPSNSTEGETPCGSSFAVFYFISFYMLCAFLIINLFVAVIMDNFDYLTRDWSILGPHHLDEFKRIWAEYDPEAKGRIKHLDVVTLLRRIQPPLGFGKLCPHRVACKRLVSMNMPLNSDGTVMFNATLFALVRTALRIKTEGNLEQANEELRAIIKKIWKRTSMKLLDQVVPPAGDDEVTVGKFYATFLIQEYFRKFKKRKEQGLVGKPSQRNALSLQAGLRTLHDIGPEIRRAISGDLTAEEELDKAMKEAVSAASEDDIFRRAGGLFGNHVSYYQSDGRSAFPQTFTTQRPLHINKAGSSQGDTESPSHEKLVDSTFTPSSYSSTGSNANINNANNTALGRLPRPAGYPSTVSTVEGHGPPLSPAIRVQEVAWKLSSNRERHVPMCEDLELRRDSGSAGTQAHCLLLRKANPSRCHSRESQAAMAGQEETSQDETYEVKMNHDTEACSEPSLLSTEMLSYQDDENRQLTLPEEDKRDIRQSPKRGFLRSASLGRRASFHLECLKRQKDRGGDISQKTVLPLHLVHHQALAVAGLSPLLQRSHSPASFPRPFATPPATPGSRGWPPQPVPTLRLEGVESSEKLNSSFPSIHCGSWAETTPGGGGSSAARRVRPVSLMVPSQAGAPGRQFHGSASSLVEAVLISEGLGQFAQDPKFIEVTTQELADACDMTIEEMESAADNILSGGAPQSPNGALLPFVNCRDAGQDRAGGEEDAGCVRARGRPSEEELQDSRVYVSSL
T1 sequence (Q08289 whole entry partner): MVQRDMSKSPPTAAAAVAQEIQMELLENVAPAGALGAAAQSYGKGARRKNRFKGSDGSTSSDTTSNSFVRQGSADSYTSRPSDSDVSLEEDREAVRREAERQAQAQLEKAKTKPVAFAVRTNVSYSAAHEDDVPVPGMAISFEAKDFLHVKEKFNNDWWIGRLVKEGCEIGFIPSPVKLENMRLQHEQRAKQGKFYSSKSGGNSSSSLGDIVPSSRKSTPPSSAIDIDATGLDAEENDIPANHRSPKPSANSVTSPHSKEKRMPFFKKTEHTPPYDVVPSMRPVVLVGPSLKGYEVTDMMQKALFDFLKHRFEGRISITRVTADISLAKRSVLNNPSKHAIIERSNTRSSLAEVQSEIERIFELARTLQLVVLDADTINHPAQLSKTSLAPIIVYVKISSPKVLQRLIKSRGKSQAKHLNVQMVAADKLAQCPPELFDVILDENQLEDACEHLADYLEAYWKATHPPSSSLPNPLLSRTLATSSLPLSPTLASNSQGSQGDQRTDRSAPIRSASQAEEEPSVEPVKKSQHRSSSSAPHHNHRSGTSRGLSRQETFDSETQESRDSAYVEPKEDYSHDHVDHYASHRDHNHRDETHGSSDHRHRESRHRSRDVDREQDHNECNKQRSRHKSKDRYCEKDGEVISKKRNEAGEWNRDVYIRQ
T1 sequence (P54289 25-956 partner limits assumed): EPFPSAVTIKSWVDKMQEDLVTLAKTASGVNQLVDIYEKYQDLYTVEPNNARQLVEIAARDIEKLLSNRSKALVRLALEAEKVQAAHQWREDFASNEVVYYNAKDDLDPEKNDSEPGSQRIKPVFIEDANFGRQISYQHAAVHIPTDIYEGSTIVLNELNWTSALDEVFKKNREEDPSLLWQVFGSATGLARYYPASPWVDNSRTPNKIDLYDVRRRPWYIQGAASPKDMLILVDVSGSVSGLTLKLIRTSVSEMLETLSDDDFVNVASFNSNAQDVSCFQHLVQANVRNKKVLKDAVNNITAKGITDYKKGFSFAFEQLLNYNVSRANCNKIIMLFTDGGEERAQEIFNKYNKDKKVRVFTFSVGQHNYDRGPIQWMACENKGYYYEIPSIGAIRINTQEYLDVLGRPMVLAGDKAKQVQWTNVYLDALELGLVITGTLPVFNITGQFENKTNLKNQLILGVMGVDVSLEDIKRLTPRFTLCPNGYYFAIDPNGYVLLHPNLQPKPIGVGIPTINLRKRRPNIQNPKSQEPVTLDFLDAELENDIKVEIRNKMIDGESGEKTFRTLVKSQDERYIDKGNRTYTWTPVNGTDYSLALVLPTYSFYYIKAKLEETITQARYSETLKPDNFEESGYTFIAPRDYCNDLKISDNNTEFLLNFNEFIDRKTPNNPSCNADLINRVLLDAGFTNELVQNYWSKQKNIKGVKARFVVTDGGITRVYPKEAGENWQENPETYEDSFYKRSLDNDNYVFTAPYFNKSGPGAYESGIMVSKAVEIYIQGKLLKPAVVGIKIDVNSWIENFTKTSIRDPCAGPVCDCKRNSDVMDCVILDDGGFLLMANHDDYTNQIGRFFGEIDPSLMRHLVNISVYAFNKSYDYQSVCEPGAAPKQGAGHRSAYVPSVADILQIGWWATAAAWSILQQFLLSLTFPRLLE
T1 sequence (P54289 957-1103 partner limits assumed): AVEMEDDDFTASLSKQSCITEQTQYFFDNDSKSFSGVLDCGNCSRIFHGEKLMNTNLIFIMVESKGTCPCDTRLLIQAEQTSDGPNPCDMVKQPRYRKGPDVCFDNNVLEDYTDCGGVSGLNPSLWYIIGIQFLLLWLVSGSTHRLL

Row | SMILES | block of Ica amplitude ([2]; at 100 μM, 0.1 Hz, isolated human atrial myocytes) | IC50 [2] | reduction Ica ([2]; 0.1 μM nisoldipine added after exposure to test article, 2 cells, cell sensitivity test) | pKa [1] | Fold Difference (Parent vs. Derivative) [2] | logP [1]
1 | O=C1CN(/N=C/c2ccc(-c3ccc([N+](=O)[O-])cc3)o2)C(O)=N1 [Dantrolene sodium salt, reference compound] |  |  |  | 7.11 |  | 
2 | COCCOCCOCCN1C(=O)CN(N=Cc2ccc(-c3ccc([N+](=O)[O-])cc3)o2)C1=O [mPEG3-N-Dantrolene, mPEG3-N-dantrolene] |  |  |  |  | 1067 | 
3 | COCCOCCOCCOc1cc([N+](=O)[O-])ccc1-c1ccc(C=NN2CC(=O)NC2=O)o1 [mPEG3-O-Dantrolene, mPEG3-O-dantrolene] |  |  |  | 8.69 | 1144 | -0.6
4 | COCCOCCOCCOCCOCCOc1cc([N+](=O)[O-])ccc1-c1ccc(C=NN2CC(=O)NC2=O)o1 [mPEG5-O-Dantrolene, mPEG5-O-dantrolene] |  | 54.3 mM |  | 7.49 | 522 | 0.74
5 | COCCOCCOCCOCCOCCOCCOCCOc1cc([N+](=O)[O-])ccc1-c1ccc(C=NN2CC(=O)NC2=O)o1 [mPEG7-O-Dantrolene, mPEG7-O-dantrolene] |  | 46.2 mM |  | 7.32 | 444 | 0.62
6 | COC(=O)C1=C(C)NC(C)=C(C(=O)OCC(C)C)C1c1ccccc1[N+](=O)[O-] (centres unmarked) [nisoldipine, reference compound] |  |  | 100% |  |  | 

Further lines, with some results ahead:

Row | block of Ica amplitude ([2]; at 100 μM, 0.1 Hz, isolated human atrial myocytes) | IC50 [2] | reduction Ica ([2]; 0.1 μM nisoldipine added after exposure to test article, 2 cells, cell sensitivity test) | SMILES | pKa [1] | Fold Difference (Parent vs. Derivative) [2] | logP [1]
7 | 21.1% | 0.104 mM |  | O=C1CN(/N=C/c2ccc(-c3ccc([N+](=O)[O-])cc3)o2)C(O)=N1 [Dantrolene] |  |  | 
8 |  | 27 mM |  | COCCOCCOCCOCCOCCN1C(=O)CN(N=Cc2ccc(-c3ccc([N+](=O)[O-])cc3)o2)C1=O [mPEG5-N-Dantrolene, mPEG5-N-dantrolene] |  | 260 | 
9 |  | 0.193 mM |  | COCCOCCOCCOCCOCCOCCOCCN1C(=O)CN(N=Cc2ccc(-c3ccc([N+](=O)[O-])cc3)o2)C1=O [mPEG7-N-Dantrolene, mPEG7-N-dantrolene] |  | 2 | 
